Data reported in patent publication EP0371730A1, “Dopamine-B-Hydroxylase inhibitors” (SMITHKLINE BEECHAM CORPORATION, priority 1988, dated 1990).

Experiments:
[1] = tested on: spontaneously hypertensive rats; experiment: mean arterial blood pressure in spontaneously hypertensive rats; assay type: in vivo; conditions: 50 mg/kg intraperitoneally, compared to vehicle-treated controls
Protocol: Further, spontaneously hypertensive rats were treated with 1-(2-imidazolylmethyl)-1,3-dihydro-2H-imidazole-2-thione at a dose of 50 mg/kg intraperitoneally, and mean arterial blood pressure was monitored for 250 minutes using indwelling cannulae in the tail arteries. […] The maximal blood pressure reduction was approximately 40 mmHg.

[2] = see Teresawa et al.; cited from earlier work
[3] = molecular target: T1, DBH (Homo sapiens, UniProt P09172); conditions: as reported by Runti et al.; cited from earlier work
T1 sequence (P09172 1-617): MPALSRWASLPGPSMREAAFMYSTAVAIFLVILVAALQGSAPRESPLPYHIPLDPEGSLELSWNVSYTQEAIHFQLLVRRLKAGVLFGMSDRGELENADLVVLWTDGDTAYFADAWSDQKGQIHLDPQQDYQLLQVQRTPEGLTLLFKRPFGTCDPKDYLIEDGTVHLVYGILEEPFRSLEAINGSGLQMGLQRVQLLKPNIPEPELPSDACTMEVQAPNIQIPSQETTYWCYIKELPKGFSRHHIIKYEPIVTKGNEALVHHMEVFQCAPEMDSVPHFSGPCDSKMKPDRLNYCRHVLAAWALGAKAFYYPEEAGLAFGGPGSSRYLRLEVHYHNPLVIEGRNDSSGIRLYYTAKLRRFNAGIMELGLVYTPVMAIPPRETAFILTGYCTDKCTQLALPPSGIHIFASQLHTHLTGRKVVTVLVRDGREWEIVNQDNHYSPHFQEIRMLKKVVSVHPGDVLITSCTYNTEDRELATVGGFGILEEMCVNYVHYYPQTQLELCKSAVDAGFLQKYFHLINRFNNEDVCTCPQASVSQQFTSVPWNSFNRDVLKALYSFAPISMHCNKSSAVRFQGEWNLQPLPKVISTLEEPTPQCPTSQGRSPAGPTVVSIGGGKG

For `S=c1[nH]ccn1Cc1ncc[nH]1` [1-(2-Imidazolylmethyl)-1,3-dihydro-2H-imidazole-2-thione], the “time to significant blood pressure reductions following treatment” value [1] was ≤ 30 min and the “maximal blood pressure reduction” value ([1]; mean arterial blood pressure monitored for 250 minutes) was “approximately 40 mmHg”.

For `CCCCc1ccc(C(=O)O)nc1` [Fusaric acid], the hepatotoxicity [2] is listed as “hepatotoxic”.

For phenylpicolinic acid, the “inhibitory activity relative to fusaric acid” value [3] is given as “twice the inhibitory activity of fusaric acid”.
